Assay [1] concerns rabbit platelet aggregation by ADP. Kind of assay: ADP-induced aggregation of rabbit platelets. The assay is classed as cell-based. As to conditions: ADP 2×10^-5 M. Here is the method:
(§1) Rabbit carotid arterial blood was collected in 3.8% sodium citrate (9 volumes blood to 1 volume citrate). Platelet rich plasma (PRP) and platelet poor plasma (PPP) were prepared by centrifugation at 150 g and 1,000 g for 10 minutes respectively. Aggregation studies were performed in a Chrono-Log (Havertown, Pa.) aggregometer with ADP or collagen as aggregating agents. ADP (Sigma Chemical Co.) was used in a final concentration of 2×10^-5 M. Calf skin collagen (Sigma Chemical Co.) was used in a final concentration of 200 ug/ml.
(§2) The effect of AP4 A on rabbit platelet aggregation by ADP and collagen was tested. […] The anti-aggregatory effect of AP4 A was detected at a concentration of 2×10^-4 M (tenfold that of ADP) and increased in a dose-response pattern with increasing concentrations (FIG. 1).

Assay [2] has as its system ADP-induced platelet aggregation. Nature of the assay: Kinetics of ADP-induced platelet aggregation (double-reciprocal plot). The assay is classed as cell-based. The following applies: FIG. 6. Here is the method: Changes in light transmission reflecting the velocity of ADP-induced platelet aggregability was determined using a platelet aggregometer. Born, G.V.P., Nature 184:927-929 (1962). […] The Y points on the X-intercept are altered by factors [formula] where I is the concentration of inhibitor, and Ki is a characteristic constant. Points on the X-intercept are given by the expression [formula] intercept when [I]=0. When [I] is known, the equation can be solved for Ki.

The subject of assay [3] is ADP-Induced Platelet Aggregation. Kind of assay: ADP-induced platelet aggregation in human platelet-rich plasma. In kind it is cell-based. The following applies: for effect on platelet inhibition at 50 μM: even at 50 μM; for inhibition of platelet aggregation (in words): FIG. 5 at 12.5 μM; for inhibition of platelet aggregation compared with E10: ADP. On the procedure: Human platelet-rich plasma was pre-incubated at 37° C. with the appropriate analogue for 1 minute. Aggregation was then induced by 5 μM ADP. ID50 values (i.e. concentration of analogue at which platelets are inhibited by 50 percent) were obtained from log-dose response plots.
FIG. 5 is a graphic representation of the data.
This Example illustrates that sulfur-containing analogues of AP4 A are as effective as E10 in inhibiting aggregation of platelets. Platelet aggregation was induced by ADP and its inhibition measured as in the previous Example.

For assay [4], the system named is Intracarotid Artery Thrombosis. Nature of the assay: Intracarotid cannula arterial thrombosis model in rabbits. In kind it is in vivo, rabbit. Here is the method: Gurewich, V. and Lipinski, B. Thrombosis Research, 9:101 (1976); Louie, S. and Gurewich, V. Thrombosis Research, 30:323-335 (1983).
Male, New Zealand white rabbits, weighing 2-2.5 kg., were anesthetized with ketamine hydrochloride (100 mg/kg intramuscularly). AP4 A (Boehringer (100 Mannheim Biochemicals, Indianapolis, Ind.), or saline control was infused via a marginal ear vein. A segment of the left common carotid artery was isolated by vascular clamps. A 1 cm. length of polyethylene tubing (PE-90, Clay Adams, Parsippany, N.Y.) was inserted, secured by silk ligatures, and the blood flow re-established by removing the clamps. Blood was sampled from the right carotid artery for assays of AP4 A and ATP, and for platelet aggregation studies.
After preliminary trials, a standard AP4 A infusion protocol was established as follows: A dose of AP4 A at 50 mg/kg was reconstituted in 10 ml of normal saline and infused by pump at a uniform rate over two hours. Control rabbits received 10 ml of saline alone. The intracarotid cannula was inserted, and the re-establishment of blood flow timed at 15 minutes into the infusion. Upon the completion of infusion at 2 hours, the intracarotid tubing was removed, and its contents flushed out into a petri dish. The presence of a clot or of liquid blood contents was noted.
Twenty-five rabbits each were assigned to the experimental group that received AP4 A (50 mg/kg), and the control group that received normal saline alone. The incidence of clot formation in the intracarotid cannula in the two groups was compared by the Chi-Square test.
Initially, twelve rabbits received a constant infusion of E10 over a 2 hour period at a dosage of 100 mg in 10 ml. These intravenous infusions were performed as described above for AP4 A.
In addition, 30 mg of E10 in 3 ml saline was administered as a single injection over a one minute time span at the beginning of the cannulation period.

In assay [5] the test system is Intracarotid Artery Thrombosis. The following applies: rabbit model, literature; cited from earlier work.
Assay [6] has as its system rabbit platelet aggregation by collagen. Nature of the assay: Collagen-induced aggregation of rabbit platelets. In kind it is cell-based. The following applies: collagen 200 ug/ml. On the procedure: as §1, §2
The mark [7] stands for this setting: Homo sapiens, Platelet, Table 3, 5 μM ADP, 1 minute pre-incubation at 37° C., read-out: ID50 (concentration of analogue at which platelets are inhibited by 50 percent).
Where [8] appears, read: E10 30 mg, single injection over one minute, 6 rabbits.
[9] abbreviates: E10 100 mg, 2 h infusion, 12 rabbits.
[10] abbreviates: E10 total (100 mg + 30 mg series), 18 rabbits.
Where [11] appears, read: Homo sapiens, Platelet, Table 5, sulfur-containing analogues, induced by ADP, read-out: ID50 (the source's name).

This is an account of results in US5049550A, “Diadenosine 5', 5'"-p^1, p^4,-tetraphosphate analogs as antithrombotic agents” (Worcester Foundation for Experimental Biology, priority 1988, dated 1991).

Broadly, the Km is the concentration of substrate that gives half-maximal velocity. Broadly, the Ki is a measure of affinity in units of concentration, obtained from inhibition or displacement. Read a high Ki as weaker binding.

“Also recorded” adds a separate entry of the source. Read-outs that look alike come from different tables or passages of the source.

With `Nc1ncnc2c1ncn2[C@@H]1O[C@H](COP(=O)(O)OP(=O)(O)O)[C@@H](O)[C@H]1O` [ADP, adenosine diphosphate, reference compound], in assay [1], the “platelet aggregation by agonist” value is “prompt and complete platelet aggregation”. For the same compound, the Michaelis constant (Km) in assay [2] came out at 3 µM.
Consider `Nc1ncnc2c1ncn2C1OC(COP(=O)(O)CP(=O)(O)OP(=O)(O)CP(=O)(O)OCC2OC(n3cnc4c(N)ncnc43)C(O)C2O)C(O)C1O` (centres unmarked) [Analogue E1, Ap(CH2)pp(CH2)pA], for which the IC50 in assay [3] (Table 3, 5 μM ADP, 1 minute pre-incubation at 37° C., read-out: ID50 (concentration of analogue at which platelets are inhibited by 50 percent)) was above 50 µM. Besides, the “effect on platelet inhibition at 50 μM” value in assay [3] was “no effect on platelet inhibition”.
Turning to `Nc1ncnc2c1ncn2[C@@H]1O[C@H](COP(=O)(O)OP(=O)(O)CP(=O)(O)OP(=O)(O)OC[C@H]2O[C@@H](n3cnc4c(N)ncnc43)[C@H](O)[C@@H]2O)[C@@H](O)[C@H]1O` [Analogue E2, App(CH2)ppA], the IC50 in assay [3] (setting [7]) was found to be 22 µM.
`Nc1ncnc2c1ncn2[C@@H]1O[C@H](COP(=O)(O)OP(=O)(O)CCP(=O)(O)OP(=O)(O)OC[C@H]2O[C@@H](n3cnc4c(N)ncnc43)[C@H](O)[C@@H]2O)[C@@H](O)[C@H]1O` [Analogue E3, App(CH2)2 ppA]: the IC50 in assay [3] (setting [7]) was found to be 11 µM.
With `Nc1ncnc2c1ncn2[C@@H]1O[C@H](COP(=O)(O)CP(=O)(O)OP(=O)(O)CP(=O)(O)OC[C@H]2O[C@@H](n3cnc4c(N)ncnc43)[C@H](O)[C@@H]2O)[C@@H](O)[C@H]1O` [Analogue E4, Ap(CH2)pp(CH2)pA], in assay [3] (setting [7]), the IC50 is above 50 µM. Besides, the “effect on platelet inhibition at 50 μM” value in assay [3] was “no effect on platelet inhibition”.
As to `Nc1ncnc2c1ncn2[C@@H]1O[C@H](COP(=O)(O)OP(=O)(O)C(F)P(=O)(O)OP(=O)(O)OC[C@H]2O[C@@H](n3cnc4c(N)ncnc43)[C@H](O)[C@@H]2O)[C@@H](O)[C@H]1O` (some centres unmarked) [Analogue E5, App(CHF)ppA], the “inhibition of platelet aggregation (in words)” value in assay [3] (5 μM ADP) is listed as “particularly effective; also recorded: the next most effective in inhibiting platelet aggregation”. The IC50 in assay [3] (setting [7]) came to 4 µM.
For `Nc1ncnc2c1ncn2[C@@H]1O[C@H](COP(=O)(O)C(F)P(=O)(O)OP(=O)(O)C(F)P(=O)(O)OC[C@H]2O[C@@H](n3cnc4c(N)ncnc43)[C@H](O)[C@@H]2O)[C@@H](O)[C@H]1O` (some centres unmarked) [Analogue E6, Ap(CHF)pp(CHF)pA], the IC50 in assay [3] (setting [7]) was 50 µM.
Turning to `Nc1ncnc2c1ncn2[C@@H]1O[C@H](COP(=O)(O)C(F)(F)P(=O)(O)OP(=O)(O)C(F)(F)P(=O)(O)OC[C@H]2O[C@@H](n3cnc4c(N)ncnc43)[C@H](O)[C@@H]2O)[C@@H](O)[C@H]1O` [Analogue E7, Ap(CF2)pp(CF2)pA], the IC50 in assay [3] (setting [7]) stood at 15 µM.
Regarding `Nc1ncnc2c1ncn2[C@@H]1O[C@H](COP(=O)(O)OP(=O)(O)C(F)(F)P(=O)(O)OP(=O)(O)OC[C@H]2O[C@@H](n3cnc4c(N)ncnc43)[C@H](O)[C@@H]2O)[C@@H](O)[C@H]1O` [Analogue E8, App(CF2)ppA], the IC50 in assay [3] (setting [7]) is 6 µM.
With `Nc1ncnc2c1ncn2[C@@H]1O[C@H](COP(=O)(O)C(Cl)P(=O)(O)OP(=O)(O)C(Cl)P(=O)(O)OC[C@H]2O[C@@H](n3cnc4c(N)ncnc43)[C@H](O)[C@@H]2O)[C@@H](O)[C@H]1O` (some centres unmarked) [Analogue E9, Ap(CHCl)pp(CHCl)pA], the IC50 in assay [3] (setting [7]) turned out to be 19 µM.
For `Nc1ncnc2c1ncn2[C@@H]1O[C@H](COP(=O)(O)OP(=O)(O)C(Cl)P(=O)(O)OP(=O)(O)OC[C@H]2O[C@@H](n3cnc4c(N)ncnc43)[C@H](O)[C@@H]2O)[C@@H](O)[C@H]1O` (some centres unmarked) [Analogue E10, diadenosine chloromethylene tetraphosphate], the “effect on clot formation compared to saline controls” value in assay [4] (E10 30 mg and 100 mg series combined) was “significantly reduces clot formation”. In addition, the “% Clots” value in assay [4] (setting [8]), in assay [4] (setting [9]) and in assay [4] (setting [10]) was 33% each time. Besides, the “Clot Absent (rabbits)” value in assay [4] (setting [8]) is given as 4; in assay [4] (setting [9]) it was 8; in assay [4] (setting [10]), 12. In addition, the “Clot Present (rabbits)” value in assay [4] (setting [8]) worked out at 2; in assay [4] (setting [9]), 4; in assay [4] (setting [10]) it was 6. In assay [4] (E10 100 mg), the “fraction of rabbits with no incidence of clotting” value is “two-thirds”. In addition, the “inhibition of platelet aggregation (in words)” value in assay [3] (5 μM ADP) is “particularly effective; also recorded: the most effective inhibitor of platelet aggregation; also recorded: potent inhibitor of platelet aggregation; also recorded: potent inhibitors of platelet aggregation and blood clot formation”. Further, the IC50 in assay [3] (setting [7]) is 3 µM; in assay [3] (setting [11]) it was below 5 µM. The compound further came in with a Ki in assay [2] (competitive inhibition of ADP-induced aggregation) of 6.7 µM. For the same compound, the “type / relative strength of inhibition” value in assay [2] (double reciprocal plot) was “superior to AP4 A as a competitive inhibitor”.
For the compound `Nc1ncnc2c1ncn2[C@@H]1O[C@H](COP(=O)(O)C(Cl)(Cl)P(=O)(O)OP(=O)(O)C(Cl)(Cl)P(=O)(O)OC[C@H]2O[C@@H](n3cnc4c(N)ncnc43)[C@H](O)[C@@H]2O)[C@@H](O)[C@H]1O` [Analogue E11, Ap(CCL2)pp(CCl2)pA], the IC50 in assay [3] (setting [7]) amounted to 9 µM.
`Nc1ncnc2c1ncn2[C@@H]1O[C@H](COP(=O)(O)OP(=O)(O)C(Cl)(Cl)P(=O)(O)OP(=O)(O)OC[C@H]2O[C@@H](n3cnc4c(N)ncnc43)[C@H](O)[C@@H]2O)[C@@H](O)[C@H]1O` [Analogue E12, App(CCl2)ppA]: the IC50 in assay [3] (setting [7]) turned out to be 10 µM.
As to `Nc1ncnc2c1ncn2[C@@H]1O[C@H](COP(O)(=S)OP(=O)(O)C(F)P(=O)(O)OP(O)(=S)OC[C@H]2O[C@@H](n3cnc4c(N)ncnc43)[C@H](O)[C@@H]2O)[C@@H](O)[C@H]1O` (some centres unmarked) [Analogue E13, Aps p(CHF)pps A], the IC50 in assay [3] (setting [11]) was 7 µM. In addition, in assay [3] (sulfur-containing analogues), the “inhibition of platelet aggregation compared with E10” value is on record as “an inhibitory effect as great as E10”.
As to `Nc1ncnc2c1ncn2[C@@H]1O[C@H](COP(O)(=S)OP(=O)(O)C(F)(F)P(=O)(O)OP(O)(=S)OC[C@H]2O[C@@H](n3cnc4c(N)ncnc43)[C@H](O)[C@@H]2O)[C@@H](O)[C@H]1O` (some centres unmarked) [Analogue E14, Aps p(CF2)pps A], in assay [3] (setting [11]), the IC50 worked out at 17 µM.
In the case of `Nc1ncnc2c1ncn2[C@@H]1O[C@H](COP(O)(=S)OP(=O)(O)OP(=O)(O)OP(O)(=S)OC[C@H]2O[C@@H](n3cnc4c(N)ncnc43)[C@H](O)[C@@H]2O)[C@@H](O)[C@H]1O` (some centres unmarked) [Analogue E15, Aps ppps A], in assay [3] (setting [11]), the IC50 was found to be 6 µM. The “inhibition of platelet aggregation compared with E10” value in assay [3] (sulfur-containing analogues) is “an inhibitory effect as great as E10”.
On to `CC(=O)Oc1ccccc1C(=O)O` [aspirin], for which, in assay [5], the “effect on clot formation in intracarotid cannula” value (“effect … in intracarotid cannula” for short) was “can be modified”.
`OCCN(CCO)c1nc(N2CCCCC2)c2nc(N(CCO)CCO)nc(N3CCCCC3)c2n1` [dipyridamole]: the “effect … in intracarotid cannula” value in assay [5] was “can be modified”.
With `CCCCCCCCNC(C)C(O)c1ccc(SC(C)C)cc1` (centres unmarked) [suloctidil], the “effect … in intracarotid cannula” value in assay [5] is on record as “can be modified”.
Regarding “collagen: Calf skin collagen (Sigma Chemical Co.) [reference compound]”, the “platelet aggregation by agonist” value in assay [6] was “prompt and complete platelet aggregation”.
